From US5707966A, “Antithrombotic agents” (Eli Lilly and Company, priority 1995, dated 1998)
Where a name gives a salt, the structure may show the parent alone. Read-outs that look alike come from different tables or passages of the source.

Key:
[1] = target: Human Thrombin (Homo sapiens, UniProt P00734); experiment: Inhibition of amidase activity of thrombin (Kass); assay type: biochemical
[2] = Index of bioavailability (% Relative Activity, plasma TT AUC oral vs i.v.); assay type: in vivo; settings: dose-adjusted AUC of plasma TT, p.o. vs i.v. bolus
Method: Parke Davis) at 37° C. […] Assays are done in duplicate and averaged. […] Each sample population represented alternating sequential time points.

[3] = target: T1, factor Xa (Homo sapiens, UniProt P00742); experiment: Kass with factor Xa, chromogenic substrate; assay type: biochemical
T1 construct: Human factors X, Xa, IXa, XIa, and XIIa are purchased; purchased Enzyme Research Laboratories, South Bend, Ind

[4] = target: T2, Bovine trypsin (Bos taurus, UniProt P00760); experiment: Kass with trypsin, chromogenic substrate; assay type: biochemical
T2 construct: Bovine trypsin is purchased; purchased Worthington Biochemicals, Freehold, N.J
T2 sequence (P00760 24-246): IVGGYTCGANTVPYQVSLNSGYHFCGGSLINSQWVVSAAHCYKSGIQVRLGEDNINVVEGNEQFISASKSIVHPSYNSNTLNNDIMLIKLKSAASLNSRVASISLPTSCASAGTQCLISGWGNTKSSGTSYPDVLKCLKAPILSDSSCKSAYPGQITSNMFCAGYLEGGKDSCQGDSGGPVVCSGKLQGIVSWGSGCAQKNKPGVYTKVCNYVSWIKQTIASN

[5] = target: T3, Human plasmin (Homo sapiens, UniProt P00747); experiment: Kass with plasmin, chromogenic substrate; assay type: biochemical
T3 construct: Human plasmin is purchased; purchased Boehringer Mannheim, Indianapolis, Ind

[6] = tested on: Human plasma; experiment: Human plasma anticoagulation, thrombin time (TT); assay type: biochemical; settings: concentration required to double the thrombin time, linear extrapolation
Procedure, shortened: (§1)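 Values are concentrations estimated by linear extrapolation to double the clotting time in human plasma containing test compound across a wide range. Thrombin time was triggered with bovine thrombin at 10 NIH units/mL plus saline, and prothrombin time with Thromboplastin-C plus saline. For APTT, plasma sat with Actin reagent for 120 seconds before 0.02M CaCl2.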

[7] = target: T4, t-PA (Homo sapiens, UniProt P00750); experiment: Kass with t-PA, chromogenic substrate; assay type: biochemical; settings: substrate H-D-Ile-Pro-Arg-p-nitroanilide
T4 construct: purchased American Diagnostica, Greenwich, Conn

[8] = tested on: Human plasma; experiment: Human plasma anticoagulation, prothrombin time (PT); assay type: biochemical; settings: concentration required to double the PT, linear extrapolation
Procedure, shortened: as §1

[9] = tested on: Human plasma; experiment: Human plasma anticoagulation, activated partial thromboplastin time (APTT); assay type: biochemical; settings: concentration required to double the APTT, linear extrapolation
Procedure, shortened: as §1

[10] = mean over a range of concentrations, […]
[11] = substrate N-Benzoyl-Ile-Glu-Gly-Arg-p-nitroanilide
[12] = substrate N-Benzoyl-Phe-Val-Arg-p-nitroanilide
[13] = substrate H-D-Val-Leu-Lys-p-nitroanilide

T3 sequence (P00747 97-810): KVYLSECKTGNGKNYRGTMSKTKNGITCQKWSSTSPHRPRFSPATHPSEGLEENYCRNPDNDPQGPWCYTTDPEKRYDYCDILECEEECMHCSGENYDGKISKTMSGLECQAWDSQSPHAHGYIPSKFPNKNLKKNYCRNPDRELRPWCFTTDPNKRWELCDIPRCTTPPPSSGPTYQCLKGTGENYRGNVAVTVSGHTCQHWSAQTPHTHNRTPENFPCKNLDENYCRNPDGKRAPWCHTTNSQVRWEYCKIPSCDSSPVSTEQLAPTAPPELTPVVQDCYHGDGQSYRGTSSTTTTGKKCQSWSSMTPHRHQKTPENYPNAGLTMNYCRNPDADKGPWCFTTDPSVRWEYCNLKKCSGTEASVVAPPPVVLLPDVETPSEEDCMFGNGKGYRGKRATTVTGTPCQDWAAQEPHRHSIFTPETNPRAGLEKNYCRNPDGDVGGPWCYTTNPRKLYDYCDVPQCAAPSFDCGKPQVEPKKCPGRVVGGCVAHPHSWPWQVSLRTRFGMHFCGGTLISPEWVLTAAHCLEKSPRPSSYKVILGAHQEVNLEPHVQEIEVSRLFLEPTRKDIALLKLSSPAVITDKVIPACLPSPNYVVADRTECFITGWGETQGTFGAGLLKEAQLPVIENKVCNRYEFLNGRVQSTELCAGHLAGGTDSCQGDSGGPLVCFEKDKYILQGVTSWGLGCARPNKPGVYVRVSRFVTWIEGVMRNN
T3 sequence (P00747 97-580 partner limits assumed): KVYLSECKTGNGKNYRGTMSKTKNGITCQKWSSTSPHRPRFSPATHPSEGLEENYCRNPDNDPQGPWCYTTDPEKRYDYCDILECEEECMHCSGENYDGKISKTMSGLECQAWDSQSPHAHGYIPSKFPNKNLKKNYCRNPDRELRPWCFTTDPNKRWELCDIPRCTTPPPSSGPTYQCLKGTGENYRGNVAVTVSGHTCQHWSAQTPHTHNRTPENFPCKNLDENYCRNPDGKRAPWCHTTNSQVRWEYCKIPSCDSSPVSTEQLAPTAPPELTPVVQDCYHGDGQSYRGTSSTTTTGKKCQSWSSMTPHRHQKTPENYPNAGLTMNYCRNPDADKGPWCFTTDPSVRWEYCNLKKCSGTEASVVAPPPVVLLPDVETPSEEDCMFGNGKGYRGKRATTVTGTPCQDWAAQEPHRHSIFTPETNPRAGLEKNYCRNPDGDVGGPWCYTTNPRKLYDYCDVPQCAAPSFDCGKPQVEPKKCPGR
T1 sequence (P00742 235-488 limits assumed): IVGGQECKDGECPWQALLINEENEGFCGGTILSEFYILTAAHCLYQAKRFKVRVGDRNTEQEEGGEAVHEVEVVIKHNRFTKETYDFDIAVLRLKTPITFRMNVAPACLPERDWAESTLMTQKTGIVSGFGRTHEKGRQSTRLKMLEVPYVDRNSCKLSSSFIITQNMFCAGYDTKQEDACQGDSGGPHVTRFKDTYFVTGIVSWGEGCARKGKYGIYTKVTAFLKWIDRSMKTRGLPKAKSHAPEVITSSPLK
T1 sequence (P00742 41-179 partner limits assumed): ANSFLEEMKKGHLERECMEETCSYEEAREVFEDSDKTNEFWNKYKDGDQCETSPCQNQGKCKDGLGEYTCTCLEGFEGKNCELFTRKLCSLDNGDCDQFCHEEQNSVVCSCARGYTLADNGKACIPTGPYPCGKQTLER
T4 sequence (P00750 36-562): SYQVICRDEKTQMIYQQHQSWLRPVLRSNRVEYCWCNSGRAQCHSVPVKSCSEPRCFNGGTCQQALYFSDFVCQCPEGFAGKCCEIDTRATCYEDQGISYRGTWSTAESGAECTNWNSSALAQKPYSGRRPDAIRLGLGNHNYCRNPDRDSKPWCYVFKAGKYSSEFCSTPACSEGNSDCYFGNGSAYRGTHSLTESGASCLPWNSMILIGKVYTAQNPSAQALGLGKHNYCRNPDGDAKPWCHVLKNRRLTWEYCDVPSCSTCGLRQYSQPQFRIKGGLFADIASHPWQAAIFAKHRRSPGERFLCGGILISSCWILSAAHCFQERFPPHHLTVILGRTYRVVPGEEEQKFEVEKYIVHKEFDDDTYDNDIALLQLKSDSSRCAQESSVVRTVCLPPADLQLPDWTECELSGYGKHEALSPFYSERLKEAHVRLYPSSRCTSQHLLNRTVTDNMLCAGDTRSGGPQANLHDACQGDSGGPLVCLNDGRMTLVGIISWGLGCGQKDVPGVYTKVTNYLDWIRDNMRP

Compound | Kass t-PA [7] | Kass Human Thrombin [1, 10] | Kass Xa [3, 11] | Kass Trypsin [4, 12] | Kass Plasmin [5, 13] | Kass Human Thrombin [1] | % oral/i.v. activity (Rat) [2] [%] | Kass Xa [3] | Kass Trypsin [4] | Kass Plasmin [5] | Human Plasma Anticoagulation 2× Clotting time TT [6] [ng/mL] | Human Plasma Anticoagulation 2× Clotting time PT [8] | Human Plasma Anticoagulation 2× Clotting time APTT [9]
CCS(=O)(=O)N[C@H](Cc1ccccc1)C(=O)N1CCC[C@H]1C(=O)NCCCCNC(=N)N [Example 1, EtSO2 -D-Phe-Pro-Agm.HCl] | 0.082 × 10^6 (L/mole) |  |  |  |  | 3.3 | 8 | 0.0017 | 0.38 | 0.010 | 250 |  | 
D-hPro-N(PhCH2 CH2)Gly-p-NHCH2 --C6 H4 C(NH)NH2.2HCl [Example 21] | 0.002 × 10^6 (L/mole) | 3.6 × 10^6 (L/mole) | 0.62 × 10^6 (L/mole) | 0.96 × 10^6 (L/mole) | 0.031 × 10^6 (L/mole) |  |  |  |  |  | 160 | 1,000 ng/mL | 2,000 ng/mL
D-hPro-Pro-p-NHCH2 C6 H4 C(NH)NH2.HCl [Example 17] | 0.0034 × 10^6 (L/mole) | 33 × 10^6 (L/mole) | 0.049 × 10^6 (L/mole) | 3.8 × 10^6 (L/mole) | 0.024 × 10^6 (L/mole) |  |  |  |  |  | 26 | 400 ng/mL | 370 ng/mL
HOOCCH2 -D-Phe-Pro-p-NHCH2 C6 H4 C(NH)NH2.HCl [Example 46] | 0.01 × 10^6 (L/mole) |  |  | 48 × 10^6 (L/mole) |  | 240 |  | 0.07 |  | 0.13 | 2 | 77 ng/mL | 67 ng/mL

Further lines, with some results ahead:

Kass t-PA [7] | Kass Human Thrombin [1, 10] | Kass Xa [3, 11] | Kass Trypsin [4, 12] | Kass Plasmin [5, 13] | Compound | Kass Human Thrombin [1] | % oral/i.v. activity (Rat) [2] [%] | Kass Xa [3] | Kass Trypsin [4] | Kass Plasmin [5] | Human Plasma Anticoagulation 2× Clotting time TT [6] [ng/mL] | Human Plasma Anticoagulation 2× Clotting time PT [8] | Human Plasma Anticoagulation 2× Clotting time APTT [9]
0.004 × 10^6 (L/mole) | 3.0 × 10^6 (L/mole) | 0.043 × 10^6 (L/mole) | 8.5 × 10^6 (L/mole) | 0.042 × 10^6 (L/mole) | D-hPro-Pro(4-cis-PhO)-p-NHCH2 --C6 H4 C(NH)NH2.2HCl [Example 22] |  |  |  |  |  | 170 | 1,000 ng/mL | 2,300 ng/mL
0.31 × 10^6 (L/mole) | 770 × 10^6 (L/mole) | 0.14 × 10^6 (L/mole) | 21 × 10^6 (L/mole) | 0.44 × 10^6 (L/mole) | EtSO2 -D-Phe-Pro-p-NHCH2 --C6 H4 C(=NH)NH2.HCl [Example 23] |  |  |  |  |  | 7 | 120 ng/mL | 86 ng/mL
